Here are results for two compounds from patent US10874686B2, “Anthranilyl-adenosinemonosulfamate analogs and uses thereof” (Memorial Sloan-Kettering Cancer Center, priority 2015, dated 2020).

Data set [1] concerns HHQ and PQS quinolone production in P. aeruginosa strain PA14. The data set is described as follows: Inhibition of HHQ and PQS quinolone production in P. aeruginosa strain PA14 (LC-MS/MS). The class given is cell-based, Pseudomonas aeruginosa. Conditions: for inhibition at 1500 µM / inhibition at 1000 µM: Pseudomonas aeruginosa. The protocol: The production of PQS and HHQ by strain PA14 was performed in triplicate in 14-mL round bottom falcon tubes containing 3-mL cultures in LB medium. Tubes were incubated at 37° C. in an orbital shaker at 225 rpm. Cultures were inoculated with 15-hour culture in LB in order to obtain a starting OD600=0.05, with or without inhibitors added. For PQS and HHQ analysis, a 20 μl aliquot was taken at time points as indicated. Each sample was diluted with 180 μL of methanol containing the internal standard (100 μM of d^4-PQS or d^4-HHQ) and 2% acetic acid. The solution was then vertexed and centrifuged at 13,000 g for 5 minutes, and the supernatant was transferred to a 96-well plates for LC-MS/MS analysis. Bacterial growth was measured by recording OD600 at 20 h to provide the data in FIG. 7A.
Liquid chromatography tandem mass spectrometry (LC-MS/MS) was carried out on an Agilent Technologies 6410 triple quad LC-MS/MS system with autosampler in electrospray ionization (ESI) mode, with an Agilent Zorbax Eclipse XDB-C18 reverse phase column (50×4.6 mm, 5 μm) using a flow rate of 0.5 mL/minute and an isocratic mobile phase of 60% CH3CN in 0.1% aqueous formic acid over 5 minutes. Positive electrospray in MRM mode was employed to quantify PQS and HHQ, using the ion transitions HHQ 244 to 159, d^4-HHQ 248 to 163, PQS 260 to 175, and d^4-PQS 264 to 179; shown in Table E3.
PqsA inhibitors 1-5 were evaluated for their ability to inhibit HHQ and PQS quinolone production in P. aeruginosa strain PA14 (FIG. 6). HHQ and PQS concentrations were determined by LC-MS/MS quantitation relative to deuterated internal standards. 6-Fluoroanthranilate (6FABA), a substrate analogue reported previously to inhibit quinolone production at millimolar concentrations, was used as a positive control. Compounds were initially tested at 1.5 mM concentration, and HHQ and PQS were quantified at 8 and 20 hours, respectively. These time points were selected based on an initial time course study of quinolone production in the absence of inhibitors, with HHQ or PQS production peaking at these respective time points. […] This could be due to differences in cell penetration, stability, and/or target specificity. Finally, because inhibitors of the quinolone quorum sensing pathway should not impact bacterial growth, we confirmed that none of the six inhibitors above inhibited growth over 20 h (FIG. 7A). Encouraged by the ability of anthranilyl-AMS (1) and anthranilyl-AMSN (2) to inhibit HHQ and PQS quinolone production, the activity of these two inhibitors and 6FABA were investigated in greater detail. In untreated controls, HHQ and PQS production peaked at 8 and 20 hours, respectively. Previously reported time course studies have similarly shown that HHQ levels peak at 6-8 hours while PQS levels continue to rise. See, e.g., Deziel et al. (2004) Proc. Natl. Acad. Sci. U.S.A 101, 1339; Kesarwani et al. (2011) PLoS Pathog. 7, e1002192. All three inhibitors were able to decrease quinolone production in a dose- and time-dependent manner (FIG. 2A). […] Such a perturbation might still be sufficient to impact P. aeruginosa virulence in vivo. […] See, e.g., Lesic et al. (2007) PLoS Pathog. 3, e126.

In data set [2] the test system is pyocyanin production by P. aeruginosa strain PA14. Kind of data set: Pyocyanin production by P. aeruginosa strain PA14. The class given is cell-based, Pseudomonas aeruginosa. The conditions noted are these: 1 mM, 24 h. How it is done:
Production of pyocyanin by P. aeruginosa strain PA14 was performed in triplicate in roundbottom glass tubes containing 5-mL cultures in LB medium. Tubes tilted at ˜60° angle were incubated at 37° C. in an orbital shaker at 200 rpm. Cultures were inoculated with 15-h preculture in LB in order to obtain a starting OD600 nm=0.05, with or without inhibitors added. At 24 h, 1 mL of each culture was thoroughly vortexed and centrifuged (12,000 g, 5 min). Next, 0.8 mL of the supernatant was removed and the OD690 nm was measured. The ratio of the absorbance compound-treated or MvfR^− cultures and untreated controls was calculated to provide the data in FIG. 7B.
The ability of these PqsA inhibitors to block production of the virulence factor pyocyanin was investigated. […] See, e.g., Starkey et al. (2014) PLoS Pathog. 10, e1004321; Storz et al. (2012) J. Am. Chem. Soc. 134, 16143; Thomann et al. (2016) ACS Chem. Biol. 11, 1279. Haloanthranilate substrate analogues have been reported to inhibit both quinolone and pyocyanin production but may impact multiple targets in this complex signaling network. This is indicative of the complex relationship between HHQ and PQS quinolone biosynthesis, induction of the MvfR regulon, and production of pyocyanin.

In data set [3] the test system is HepG2 cells. Kind of data set: Cell health and viability image-based study (fluorescence microscopy), HepG2. The conditions noted are these: for IC50: Homo sapiens, HepG2, imaging; for toxicity in words, imaging, HepG2: up to 1000 μM. The protocol:
The multiparametric assay developed surveys a number of elements of cell health simultaneously. Using a combination of 2 dyes, we are able to simultaneously measure nuclear morphology, membrane integrity and cell proliferation. All measurements are made on live cells after an incubation time of 24H. Hoechst 33342 is used to measure total number of cells, nuclear morphology and cell proliferation. The nuclear impermeable dye Syto17 is used to assess the nuclear membrane integrity by measuring the nuclear translocation of the dye when the membrane gets porous after incubation with a toxic compound. Cells were plated at a density of 1500 cells/25 al in well in a 384 wells plate the day before incubation with the drugs. The following day, 0.1 al of the source plate are added to the assay plate. Then, 25 al of a fluorophores mixture containing Hoechst 33342, Syto17 diluted in EMEM was added to each well. Plates are read after 48 h incubation in the ImageXpress instrument (Molecular Devices) using the appropriate filters. Images are analyzed using an application of MetaXpress software (Molecular Devices) and data are presented using Prism software. Low Signal Control (C23): 5 μM Staurosporine; High Signal Control (C24): DMSO.

The mark [4] stands for this setting: PA14, 8 h, read-out: inhibition of HHQ production.
Setting [5] is: PA14, 20 h, read-out: inhibition of PQS production.
The mark [6] stands for this setting: PA14, read-out: inhibition of HHQ production.
[7] abbreviates: PA14, read-out: inhibition of PQS production.
The mark [8] stands for this setting: Hoechst 33342, read-out: Cell Count IC50, HepG2.
[9] abbreviates: Syto17, read-out: Nuclear membrane integrity IC50, HepG2.

Where two headings read alike, the source gives them in different places.

In general, inhibition refers to the change of the read-out against control, counted positive when it falls. As usually defined, the IC50 is the concentration needed to halve the response being measured. `Nc1ccccc1C(=O)NS(=O)(=O)OC[C@H]1O[C@@H](n2cnc3c(N)ncnc32)[C@H](O)[C@@H]1O` [anthranilyl-AMS, Anthranilyl-AMS]: the “dose- and time-dependent decrease of quinolone production, in words” value in data set [1] (FIG. 2A) is “same trend of inhibition, albeit again with lower potency”. The inhibition at 1500 µM in data set [1] (setting [4]) is 67%; in data set [1] (setting [5]), 77%. Moreover, the inhibition at 1000 µM is 47% in data set [1] (setting [6]) and 40% in data set [1] (setting [7]). Besides, in data set [2], the “inhibition of pyocyanin production” value is reported as “neither inhibited pyocyanin production”. For the same compound, the figures for the IC50 in data set [3] (setting [8]) and in data set [3] (setting [9]) were 5.9 µM and 12.1 µM, respectively. Also, the “toxicity in words, imaging, HepG2” value in data set [3] is given as “significant toxicity in the tested range”.

Turning to `Nc1ccccc1C(=O)NS(=O)(=O)NC[C@H]1O[C@@H](n2cnc3c(N)ncnc32)[C@H](O)[C@@H]1O` [anthranilyl-AMSN, Anthranilyl-AMSN], the inhibition at 1500 µM in data set [1] (setting [4]) is 90%; in data set [1] (setting [5]) it was 92%. For the same compound, the inhibition at 1000 µM in data set [1] (setting [6]) and in data set [1] (setting [7]) was 84% in each case. The “inhibition of pyocyanin production” value in data set [2] is on record as “neither inhibited pyocyanin production”. The IC50 in data set [3] (setting [8]) was found to be 6 µM; in data set [3] (setting [9]), 56.3 µM. Also, the “toxicity in words, imaging, HepG2” value in data set [3] is “significant toxicity in the tested range”.
